Counter-ions that a name gives are not always drawn.
What was measured:
[1] = Acute toxicity studies in mice; conditions: mouse, in vivo, ip
Experimental: After a week, a select number of the mice were sacrificed.
Acute toxicity studies involving antineoplaston fractions A2-A5, antineoplaston A10 and degradation products were carried out in the same manner described above.

Rd/3 sarcoma = conditions: rats, cited from earlier work

SMILES | LD50 [1] | enhancement of tumor growth (Rd/3 sarcoma; Rd/3 sarcoma) | effect on tumor growth, Rd/3 sarcoma (Rd/3 sarcoma; inhibition)
O=C1CCC(NC(=O)Cc2ccccc2)C(=O)N1 (stereo not drawn) [Antineoplaston A10, 3-[N-phenylacetylaminopiperidine]-2,6-dion] | 10300 mg/kg | – | –
O=C(O)Cc1ccccc1 [sodium salt of phenylacetic acid] | – | some enhancement of tumor growth | failed to inhibit tumor growth

Source: patent US4559325A, “Purified antineoplaston fractions and methods of treating neoplastic disease” (priority 1984, dated 1985)
